From patent US7208524B2, “5-amidino-2-hydroxybenzenesulfonamide derivatives, pharmaceutical compositions containing the same and intermediates for their preparation” (Kissei Pharmaceutical Co., Ltd., priority 2000, dated 2007)

Experiments:
human thrombin = molecular target: T1, human thrombin (Homo sapiens, UniProt P00734); assay: Measurement of inhibitory activity for thrombin (S-2238 chromogenic substrate); assay type: biochemical; settings: S-2238, 10 minutes at 37° C., pH 8.4
T1 construct: human thrombin (Sigma Chemical Company); purchased Sigma Chemical Company
Description: (§1) 2.5 μL of a dimethylsulfoxide solution of a test compound, 187.5 μL of 100 mM tris-200 mM NaCl buffer (pH 8.4) and 50 μL of 1 mM S-2238 (Daiichi Pure Chemicals) aqueous solution were poured into 96 well microplate. Then 10 μL of 2.0 U/mL human thrombin (Sigma Chemical Company) in gelatin-glycine buffer was added and the mixture was incubated for 10 minutes at 37° C. The reaction was terminated with the addition of 50 μL of 60% acetic acid and absorbance (405 nm) was measured by a microplate reader (SPECTRAmax 250, Molecular Devices).
The group with 2.5 μL of the dimethylsulfoxide solution instead of the test compound solution was defined as the control, and the group with 10 μL of the gelatin-glycine buffer solution instead of human thrombin was defined as the blank. The concentration of a test compound that inhibited the absorbance of control by 50% (IC50) was obtained, and this value was used as the index of inhibitory activity for thrombin.

normal human plasma = assay: Measurement of anticoagulation effects (prolongation of plasma prothrombin time)
Description: Two μL of a dimethylsulfoxide solution of a test compound was put in the process tube and then incubated at 37° C. One minute after addition of 48 μL of normal human plasma (George King Bio-Medical Inc), 100 μL of plasma prothrombin time reagent (Boehringer Mannheim) prewarmed at 37° C. was added into the mixture. Prothrombin time was measured with a coagulometer (ST4, Boehringer Mannheim).
The group without any test compound was defined as the control. The concentration of test compound that prolonged the clotting time of the control by 2 times (CT2) was obtained and, this value was used as the index of anticoagulation activity.

[1] = molecular target: T2, human activated blood coagulation factor X (Homo sapiens, UniProt P00742); assay: Measurement of inhibitory activity for activated blood coagulation factor X (S-2222 chromogenic substrate); assay type: biochemical; settings: S-2222, 10 minutes at 37° C., pH 8.4
T2 construct: purchased Calbiochem
Description: as §1, with “S-2222” for “S-2238”, “0.6” for “2.0”, “activated blood coagulation factor X (Calbiochem)” for “thrombin (Sigma Chemical Company)”
Target sequence in this assay (P00742 235-488 limits assumed): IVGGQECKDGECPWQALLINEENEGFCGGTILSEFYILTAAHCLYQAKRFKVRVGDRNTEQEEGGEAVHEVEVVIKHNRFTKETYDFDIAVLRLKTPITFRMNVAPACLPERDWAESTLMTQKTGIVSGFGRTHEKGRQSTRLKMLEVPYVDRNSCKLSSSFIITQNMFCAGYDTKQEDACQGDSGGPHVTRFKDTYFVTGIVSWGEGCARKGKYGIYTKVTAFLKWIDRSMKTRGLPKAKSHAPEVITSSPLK
Target sequence in this assay (P00742 41-179 partner limits assumed): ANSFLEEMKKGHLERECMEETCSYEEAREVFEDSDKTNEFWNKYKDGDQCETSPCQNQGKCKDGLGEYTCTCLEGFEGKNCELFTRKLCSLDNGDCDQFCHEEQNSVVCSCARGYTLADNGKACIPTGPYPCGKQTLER
The group with 2.5 μL of the dimethylsulfoxide solution instead of the test compound solution was defined as the control, and the group with 10 μL of the gelatin-glycine buffer solution instead of human activated blood coagulation factor X was defined as the blank.

Male ICR mice = assay: Acute toxicity test; assay type: in vivo; settings: 50.0 mg/10.0 mL/kg into tail vein, survival judged for 24 hours, groups of 5
Description: Male ICR mice aged 7 weeks (SLC) were divided into several groups consisted of 5 mice. A solution containing a test compound was prepared at the concentration that became the administration volume of the test compound to be 50.0 mg/10.0 mL/kg. The solution was administered into tail vein at an infusion rate of 1 mL/minute. Observations were performed at constant interval, and survival rate was judged for 24 hours. Results were shown as Table 5, and no death case was observed.

plasma prothrombin time = assay: Oral administration test in rats: prothrombin time (PT) of plasma; assay type: in vivo, rat; settings: male Wistar rats, 30 minutes after oral administration, 30 mg/kg; PT after administration to that before
Description: (§2) Male Wistar rats aged 6–9 weeks (SLC) fasted overnight were used. A test compound was dissolved or suspended in 0.5% methylcellulose solution at the concentration of 6.0 mg/mL. Then 5.0 mL/kg of that was orally administrated into the rats. Before and at proper time points after administration of the test compound, citrated (1:10 dilution, 3.13% sodium citrate) blood was collected from the jugular vein. Plasma samples were obtained by centrifugation.
Fifty μL of plasma was put in the process tube and then incubated at 37° C. One minute later, 100 μL of plasma PT reagent (Boehringer Mannheim) prewarmed at 37° C. was added into the mixture. PT was measured with a coagulometer (ST4, Boehringer Mannheim).
The ratio of PT at each time point after administration of the test compound to that of before administration was used as the index of anticoagulation activity.
(§3) 4) Results of anti-activated blood coagulation factor X activity in plasma and PT ratio at 30 minutes after oral administration of each test compound at a dose of 30 mg/kg were shown as Table 4.

[2] = molecular target: T2, human activated blood coagulation factor X; assay: Oral administration test in rats: anti-activated blood coagulation factor X activity in plasma; assay type: in vivo, rat; settings: male Wistar rats, 30 minutes after oral administration, 30 mg/kg; plasma tested against human factor Xa
Description: as §2
Target sequence in this assay (P00742 235-488 limits assumed): as the sequence (P00742 235-488 limits assumed) above
Target sequence in this assay (P00742 41-179 limits assumed): as the sequence (P00742 41-179 partner limits assumed) above
2.5 μL of plasma sample, 200 μL of 100 mM tris-200 mM NaCl buffer (pH 8.4) and 10 μL of 0.06 U/mL human activated blood coagulation factor X (Calbiochem) in gelatin-glycine buffer were poured into 96 well microplate. Then 50 μL of 1 mM S-2222 (Daiichi Pure Chemicals) aqueous solution was added and the mixture was incubated for 10 minutes at room temperature. The reaction was terminated with the addition of 50 μL of 60% acetic acid and absorbance (405 nm) was measured by a microplate reader (SPECTRAmax 250, Molecular Devices).
The group with 2.5 μL of the control plasma instead of the plasma sample was defined as the control, and the group with 10 μL of gelatin-glycine buffer solution instead of human activated blood coagulation factor X was defined as the blank. The inhibitory % of plasma sample was calculated from absorbance of the control as 100% and this value was used as the index of anti-activated blood coagulation factor X activity in plasma.
as §3

Row | Structure (SMILES) | IC50 (human thrombin) [nM] | Anticoagulation activity (μM): concentration that prolonged the clotting time of the control by 2 times (CT2) (normal human plasma) [µM] | IC50 [1] [nM] | Death case (Male ICR mice) | PT ratio (plasma prothrombin time) | Anti-activated blood coagulation factor X activity in plasma (%) [2] [%]
1 | CS(=O)(=O)c1ccccc1-c1ccc(CCNS(=O)(=O)c2cc(C(=N)N)ccc2O)c(OCC(=O)O)c1.Cl [Compound 33, [4-[2-(5-Carbamimidoyl-2-hydroxybenzenesulfonylamino)-ethyl]-2′-methanesulfonoylbiphenyl-3-yloxy]acetic acid hydrochloride] | > 100000 | 0.52 | – | – | – | –
2 | CC(C)c1ccc(CCNS(=O)(=O)c2cc(C(=N)N)ccc2O)c(OCC(=O)O)c1 [Compound 42, [2-[2-(5-Carbamimidoyl-2-hydroxybenzenesulfonylamino)-ethyl]-5-isopropylphenoxy]acetic acid] | > 100000 | 2.4 | 100 | 0/5 | – | –
3 | CCOC(=O)COc1cc(-c2ccccc2S(C)(=O)=O)ccc1CCNS(=O)(=O)c1cc(C(=N)NO)ccc1O [Compound 43, Ethyl[4-[2-[2-hydroxy-5-(N-hydroxycarbamimidoyl)-benzenesulfonylamino]ethyl]-2′-mthanesulfonylbiphenyl-3-yloxy]acetate] | – | – | – | – | 1.31 | 32.0
4 | CCCCOC(=O)COc1cc(-c2ccccc2S(C)(=O)=O)ccc1CCNS(=O)(=O)c1cc(C(=N)NO)ccc1O.Cl [Compound 48, n-Butyl[4-[2-[2-Hydroxy-5-(N-hydroxycarbamimidoyl)-benzenesulfonylamino]ethyl]-2′-methanesulfonylbiphenyl-3-yloxy]acetate hydrochloride] | – | – | – | – | 1.50 | 58.2
5 | CS(=O)(=O)c1ccccc1-c1ccc(CCNS(=O)(=O)c2cc(C(=N)NO)ccc2O)c(OCC(=O)OC2CCCCC2)c1 [Compound 49, Cyclohexyl[4-[2-[2-hydroxy-5-(N-hydroxycarbamimidoyl)-benzenesulfonylamino]ethyl]-2′-methanesulfonylbiphenyl-3-yloxy]acetate] | – | – | – | – | 1.43 | 51.4
6 | CC(C)c1ccc(CCNS(=O)(=O)c2cc(C(=N)N)ccc2O)c(S(N)(=O)=O)c1 [Compound 52, 5-Carbamimidoyl-2-hydroxy-N-[2-(4-isopropyl-2-sulfamoylphenyl)ethyl]benzenesulfonamide] | > 100000 | – | 16 | – | – | –
7 | Cc1nc(CN(CCc2ccc(C(C)C)cc2OCC(=O)O)S(=O)(=O)c2cc(C(=N)N)ccc2O)cs1 [Compound 53, [2-[2-[(5-Carbamimidoyl-2-hydroxybenzenesulfonyl)-(2-methyl-1,3-thiazol-4-ylmethyl)amino]ethyl]-5-isopropylphenoxy]acetic acid] | > 100000 | – | 51 | – | – | –
